Assays:
rabbit lung ACE = target: T1, rabbit lung ACE (Oryctolagus cuniculus, UniProt P12822); assay: ACE inhibitory assay; type: biochemical; details: IC50 against ACE, positive control; performed in this study
T1 sequence (P12822 34-1310): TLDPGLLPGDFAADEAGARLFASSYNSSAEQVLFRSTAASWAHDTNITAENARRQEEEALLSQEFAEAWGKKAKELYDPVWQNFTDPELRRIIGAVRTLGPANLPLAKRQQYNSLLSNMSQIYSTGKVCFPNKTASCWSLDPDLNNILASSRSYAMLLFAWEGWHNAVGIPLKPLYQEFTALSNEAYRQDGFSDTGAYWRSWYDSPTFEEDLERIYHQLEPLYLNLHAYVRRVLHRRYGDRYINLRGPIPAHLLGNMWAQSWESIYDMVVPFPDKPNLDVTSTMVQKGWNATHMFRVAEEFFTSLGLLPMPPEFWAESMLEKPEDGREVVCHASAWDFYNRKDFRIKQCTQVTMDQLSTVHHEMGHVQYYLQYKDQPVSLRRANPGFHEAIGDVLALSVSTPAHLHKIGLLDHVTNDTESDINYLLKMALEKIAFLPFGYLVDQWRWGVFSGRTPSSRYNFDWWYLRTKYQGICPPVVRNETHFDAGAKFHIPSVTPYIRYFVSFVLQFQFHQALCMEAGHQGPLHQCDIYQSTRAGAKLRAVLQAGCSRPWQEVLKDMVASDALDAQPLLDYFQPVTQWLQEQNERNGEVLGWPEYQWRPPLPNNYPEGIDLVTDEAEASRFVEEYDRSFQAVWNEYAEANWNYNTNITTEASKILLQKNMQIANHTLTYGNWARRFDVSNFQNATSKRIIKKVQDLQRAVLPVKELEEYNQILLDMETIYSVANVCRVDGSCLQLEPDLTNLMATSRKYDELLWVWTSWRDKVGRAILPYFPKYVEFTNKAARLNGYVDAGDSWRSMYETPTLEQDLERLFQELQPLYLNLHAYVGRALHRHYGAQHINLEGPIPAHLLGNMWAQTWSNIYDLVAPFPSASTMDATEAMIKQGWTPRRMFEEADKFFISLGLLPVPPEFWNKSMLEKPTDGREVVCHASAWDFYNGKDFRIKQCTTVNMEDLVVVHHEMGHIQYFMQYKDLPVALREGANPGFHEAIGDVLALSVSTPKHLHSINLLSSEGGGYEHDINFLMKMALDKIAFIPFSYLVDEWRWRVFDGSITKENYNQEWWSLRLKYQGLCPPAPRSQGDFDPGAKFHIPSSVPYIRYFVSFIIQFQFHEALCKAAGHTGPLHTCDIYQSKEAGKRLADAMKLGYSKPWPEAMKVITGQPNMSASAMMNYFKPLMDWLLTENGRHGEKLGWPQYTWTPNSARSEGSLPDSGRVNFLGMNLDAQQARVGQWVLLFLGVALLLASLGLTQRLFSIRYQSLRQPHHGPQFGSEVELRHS

Candida rugosa lipase = details: read-out: IC50 against lipase; positive control; ref Chupeerach et al., 2022[35]; cited from earlier work

Row | SMILES | IC50 (rabbit lung ACE) [µM] | IC50 (Candida rugosa lipase) [µM]
1 | NCCCC[C@H](N[C@@H](CCc1ccccc1)C(=O)O)C(=O)N1CCC[C@H]1C(=O)O [Lisinopril, lisinopril] | 0.00179 | 
2 | CCCCCCCCCCC[C@@H](C[C@@H]1OC(=O)[C@H]1CCCCCC)OC(=O)[C@H](CC(C)C)NC=O [Orlistat, orlistat] |  | 7.94
